Holding throughout (assay): KinomeScan profiling
What all share (assay type): binding

The target of assay [1] is T1, CASK (Homo sapiens, UniProt O14936).
T1 sequence (O14936 1-926): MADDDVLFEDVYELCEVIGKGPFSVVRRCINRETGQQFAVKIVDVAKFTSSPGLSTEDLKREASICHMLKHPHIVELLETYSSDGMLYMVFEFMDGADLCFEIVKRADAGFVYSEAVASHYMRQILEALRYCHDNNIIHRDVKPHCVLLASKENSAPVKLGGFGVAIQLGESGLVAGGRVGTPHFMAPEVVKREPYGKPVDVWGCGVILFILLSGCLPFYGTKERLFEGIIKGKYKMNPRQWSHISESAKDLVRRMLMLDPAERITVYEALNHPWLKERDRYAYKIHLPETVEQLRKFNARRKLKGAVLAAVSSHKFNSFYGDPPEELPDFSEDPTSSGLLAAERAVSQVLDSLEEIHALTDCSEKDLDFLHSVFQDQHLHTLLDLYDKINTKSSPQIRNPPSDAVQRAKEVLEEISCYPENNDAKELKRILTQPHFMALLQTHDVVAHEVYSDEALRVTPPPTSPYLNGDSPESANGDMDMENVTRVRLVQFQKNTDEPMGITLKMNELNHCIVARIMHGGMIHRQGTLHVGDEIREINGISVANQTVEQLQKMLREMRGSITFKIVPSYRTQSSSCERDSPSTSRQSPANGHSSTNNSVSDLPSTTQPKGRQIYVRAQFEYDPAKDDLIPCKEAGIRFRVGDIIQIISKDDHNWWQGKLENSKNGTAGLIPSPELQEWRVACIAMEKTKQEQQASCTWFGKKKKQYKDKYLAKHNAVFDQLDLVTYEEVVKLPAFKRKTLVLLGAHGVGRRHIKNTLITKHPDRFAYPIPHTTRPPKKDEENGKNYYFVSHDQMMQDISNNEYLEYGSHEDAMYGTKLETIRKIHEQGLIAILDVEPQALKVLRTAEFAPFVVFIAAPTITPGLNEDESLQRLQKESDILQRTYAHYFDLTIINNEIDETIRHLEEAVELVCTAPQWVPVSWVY
To be noted: read-out: % control. The method, then: (§1) The kinase selectivity of inventive compounds 77, 96 and 101 was evaluated by KinomeScan®. KinomeScan® analysis was performed against a near comprehensive panel of 468 kinases. The control percentage (% control) for inventive compounds at 1 μM in DMSO was determined by Equation 1: % control=(inventive compound−positive control)/(negative control−positive control)×100%, Equation 1
(§2) wherein the positive control is a compound with a % control value of 0% relative light units (RLU), and the negative control (i.e., DMSO) has % control value of 100% RLU. The enzyme selectivity in the present invention is defined as follows: inventive compounds are considered active for an enzyme when the observed % control is less than 35% (<35%).

The target in assay [2] is FGFR3(G697C) (Homo sapiens, UniProt P22607, G697C). To be noted: read-out: % control. The method, then:
as §1, §2

The target of assay [3] is T2, FLT3(D835Y) (Homo sapiens, UniProt P36888, D835Y).
T2 sequence (P36888 27-993 D835Y): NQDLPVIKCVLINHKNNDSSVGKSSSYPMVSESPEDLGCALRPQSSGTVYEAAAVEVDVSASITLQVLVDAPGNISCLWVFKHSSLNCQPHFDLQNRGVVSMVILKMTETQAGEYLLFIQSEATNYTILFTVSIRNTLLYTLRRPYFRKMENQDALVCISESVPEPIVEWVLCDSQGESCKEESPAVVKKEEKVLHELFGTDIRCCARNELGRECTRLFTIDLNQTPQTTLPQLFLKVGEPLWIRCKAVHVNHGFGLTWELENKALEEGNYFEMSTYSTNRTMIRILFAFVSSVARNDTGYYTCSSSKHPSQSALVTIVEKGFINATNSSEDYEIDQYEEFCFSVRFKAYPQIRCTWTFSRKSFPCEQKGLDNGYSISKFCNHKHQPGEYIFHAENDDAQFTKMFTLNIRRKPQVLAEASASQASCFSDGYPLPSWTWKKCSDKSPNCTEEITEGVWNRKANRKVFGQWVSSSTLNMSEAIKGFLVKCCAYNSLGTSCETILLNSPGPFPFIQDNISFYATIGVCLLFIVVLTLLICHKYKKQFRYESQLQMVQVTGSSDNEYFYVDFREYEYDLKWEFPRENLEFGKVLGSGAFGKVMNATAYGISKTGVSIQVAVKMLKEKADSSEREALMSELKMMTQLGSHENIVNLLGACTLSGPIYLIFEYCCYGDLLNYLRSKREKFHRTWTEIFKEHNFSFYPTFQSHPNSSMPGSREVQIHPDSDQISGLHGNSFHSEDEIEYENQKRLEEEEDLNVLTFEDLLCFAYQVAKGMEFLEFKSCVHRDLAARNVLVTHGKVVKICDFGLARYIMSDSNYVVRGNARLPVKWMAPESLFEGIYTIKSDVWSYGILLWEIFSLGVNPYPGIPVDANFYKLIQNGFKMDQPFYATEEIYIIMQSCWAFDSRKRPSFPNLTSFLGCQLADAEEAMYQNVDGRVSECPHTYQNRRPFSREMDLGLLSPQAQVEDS
Conditions: read-out: % control. The method, then: as §1, §2

Assay [4] has as its target NIM1 (Homo sapiens, UniProt Q8IY84). To be noted: NIM1, 1 μM; read-out: % control. The method, then:
as §1, §2

The target in assay [5] is T3, SLK (Homo sapiens, UniProt Q9H2G2).
T3 construct: purchased KinomeScan® (panel service)
T3 sequence (Q9H2G2 whole entry): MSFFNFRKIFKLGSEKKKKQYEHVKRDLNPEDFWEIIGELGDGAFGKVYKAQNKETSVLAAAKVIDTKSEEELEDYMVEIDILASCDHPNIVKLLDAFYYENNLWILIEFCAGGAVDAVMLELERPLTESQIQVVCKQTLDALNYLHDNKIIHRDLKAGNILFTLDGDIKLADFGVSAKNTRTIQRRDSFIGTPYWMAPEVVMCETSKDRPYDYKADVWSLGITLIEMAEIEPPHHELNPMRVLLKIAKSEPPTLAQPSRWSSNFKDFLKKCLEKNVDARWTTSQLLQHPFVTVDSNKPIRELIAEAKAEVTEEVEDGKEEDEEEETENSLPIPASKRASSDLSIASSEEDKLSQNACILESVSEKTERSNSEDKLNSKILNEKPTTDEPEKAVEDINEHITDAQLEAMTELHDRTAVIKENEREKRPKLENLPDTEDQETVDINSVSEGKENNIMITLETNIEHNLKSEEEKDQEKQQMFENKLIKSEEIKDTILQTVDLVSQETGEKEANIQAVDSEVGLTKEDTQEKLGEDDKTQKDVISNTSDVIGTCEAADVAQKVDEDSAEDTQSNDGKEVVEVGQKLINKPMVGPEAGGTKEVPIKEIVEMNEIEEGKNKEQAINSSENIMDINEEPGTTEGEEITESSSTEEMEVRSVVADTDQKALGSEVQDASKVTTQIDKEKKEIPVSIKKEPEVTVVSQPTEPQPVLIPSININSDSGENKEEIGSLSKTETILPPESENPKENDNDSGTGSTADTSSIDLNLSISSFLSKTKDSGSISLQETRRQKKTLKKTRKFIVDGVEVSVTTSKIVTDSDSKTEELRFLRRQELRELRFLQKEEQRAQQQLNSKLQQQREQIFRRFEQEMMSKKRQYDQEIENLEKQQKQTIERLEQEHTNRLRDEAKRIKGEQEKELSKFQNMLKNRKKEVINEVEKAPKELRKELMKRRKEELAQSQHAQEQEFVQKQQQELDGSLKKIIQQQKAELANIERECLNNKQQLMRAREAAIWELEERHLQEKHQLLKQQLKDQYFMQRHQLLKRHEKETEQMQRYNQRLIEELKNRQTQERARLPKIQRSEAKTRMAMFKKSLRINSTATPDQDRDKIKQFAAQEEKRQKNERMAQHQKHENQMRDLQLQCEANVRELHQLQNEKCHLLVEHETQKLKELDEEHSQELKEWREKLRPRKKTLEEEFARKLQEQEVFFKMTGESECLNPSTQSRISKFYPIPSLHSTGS
Conditions: read-out: % control. Here is the method:
as §1, §2

The target of assay [6] is T4, ULK3 (Homo sapiens, UniProt Q6PHR2).
T4 sequence (Q6PHR2 1-472): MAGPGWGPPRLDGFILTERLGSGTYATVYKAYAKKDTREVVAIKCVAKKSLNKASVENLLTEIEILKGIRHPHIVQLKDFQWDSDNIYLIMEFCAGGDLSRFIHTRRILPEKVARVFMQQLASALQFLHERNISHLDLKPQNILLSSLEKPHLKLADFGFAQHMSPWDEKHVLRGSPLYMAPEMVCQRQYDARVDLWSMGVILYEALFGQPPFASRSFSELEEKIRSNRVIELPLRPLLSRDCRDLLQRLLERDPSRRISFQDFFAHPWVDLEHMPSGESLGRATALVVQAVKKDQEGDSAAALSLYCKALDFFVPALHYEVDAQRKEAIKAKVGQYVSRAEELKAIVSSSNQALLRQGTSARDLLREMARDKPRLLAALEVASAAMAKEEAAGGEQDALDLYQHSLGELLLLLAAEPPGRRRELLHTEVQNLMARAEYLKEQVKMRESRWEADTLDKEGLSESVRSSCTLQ
Conditions: ULK3, 1 μM; read-out: % control. The method, then: as §1, §2

Assay [7] deals with YANK1 (Homo sapiens, UniProt Q8WU08). Conditions: YANK1, 1 μM; read-out: % control. Here is the method: as §1, §2
YANK1, sequence (Q8WU08 whole entry): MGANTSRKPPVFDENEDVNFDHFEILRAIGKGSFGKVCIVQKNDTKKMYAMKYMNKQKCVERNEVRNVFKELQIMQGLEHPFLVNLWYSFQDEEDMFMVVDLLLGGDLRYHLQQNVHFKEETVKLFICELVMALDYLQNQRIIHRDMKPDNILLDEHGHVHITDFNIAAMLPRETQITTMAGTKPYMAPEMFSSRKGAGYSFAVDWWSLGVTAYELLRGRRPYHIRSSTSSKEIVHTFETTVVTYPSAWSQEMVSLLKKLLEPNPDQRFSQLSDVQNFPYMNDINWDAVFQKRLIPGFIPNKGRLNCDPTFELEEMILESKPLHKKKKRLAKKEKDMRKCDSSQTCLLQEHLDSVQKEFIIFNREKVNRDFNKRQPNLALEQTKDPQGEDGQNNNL

3 molecules from patent US12275731B2, “Azaindole inhibitors of wild-type and mutant forms of LRRK2” (DANA-FARBER CANCER INSTITUTE, INC., priority 2018, dated 2025) can be followed below.

FGFR3(G697C), sequence (P22607 23-806 G697C): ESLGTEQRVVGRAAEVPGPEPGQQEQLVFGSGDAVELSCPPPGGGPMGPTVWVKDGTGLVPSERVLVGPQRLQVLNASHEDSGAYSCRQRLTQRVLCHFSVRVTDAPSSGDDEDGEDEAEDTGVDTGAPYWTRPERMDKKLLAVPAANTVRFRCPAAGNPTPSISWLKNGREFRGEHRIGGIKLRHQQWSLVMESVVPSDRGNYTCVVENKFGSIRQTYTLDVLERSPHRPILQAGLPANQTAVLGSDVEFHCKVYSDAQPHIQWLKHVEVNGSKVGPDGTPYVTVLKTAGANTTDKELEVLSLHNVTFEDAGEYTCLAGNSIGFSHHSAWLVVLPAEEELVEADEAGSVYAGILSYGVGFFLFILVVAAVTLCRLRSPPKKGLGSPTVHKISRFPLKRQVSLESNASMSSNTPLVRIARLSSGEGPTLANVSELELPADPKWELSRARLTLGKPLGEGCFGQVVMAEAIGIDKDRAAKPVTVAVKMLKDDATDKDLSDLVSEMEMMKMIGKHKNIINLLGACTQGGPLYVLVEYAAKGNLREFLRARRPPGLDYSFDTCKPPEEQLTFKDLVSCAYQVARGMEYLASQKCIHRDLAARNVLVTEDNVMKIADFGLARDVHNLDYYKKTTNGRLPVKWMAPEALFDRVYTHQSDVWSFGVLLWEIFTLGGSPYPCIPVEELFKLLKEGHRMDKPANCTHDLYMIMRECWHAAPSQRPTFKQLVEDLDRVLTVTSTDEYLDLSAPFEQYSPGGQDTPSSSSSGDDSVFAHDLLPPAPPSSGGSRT
NIM1, sequence (Q8IY84 whole entry): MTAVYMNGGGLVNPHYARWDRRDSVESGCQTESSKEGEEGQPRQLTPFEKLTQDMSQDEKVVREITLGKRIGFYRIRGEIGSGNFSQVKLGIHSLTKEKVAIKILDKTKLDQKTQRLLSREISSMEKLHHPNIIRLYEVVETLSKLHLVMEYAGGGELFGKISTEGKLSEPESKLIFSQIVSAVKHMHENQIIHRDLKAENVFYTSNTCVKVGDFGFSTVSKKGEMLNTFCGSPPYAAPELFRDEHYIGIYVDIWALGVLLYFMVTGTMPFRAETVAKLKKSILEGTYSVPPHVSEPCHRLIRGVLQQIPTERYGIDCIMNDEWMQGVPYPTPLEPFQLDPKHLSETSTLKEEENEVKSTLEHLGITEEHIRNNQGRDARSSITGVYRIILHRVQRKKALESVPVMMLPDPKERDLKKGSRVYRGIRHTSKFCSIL

Consider `CNc1c(-c2ccc(C(=O)N3CCC(N4CCOCC4)CC3)cc2)cnc2[nH]cc(Cl)c12` [Compound 96, (4-(3-chloro-4-(methylamino)-1H-pyrrolo[2,3-b]pyridin-5-yl)phenyl)(4-morpholinopiperidin-1-yl)methanone], for which the remaining binding at 1 µM in assay [1] is 94%; in assay [2], 55%; in assay [3] it was 11%; in assay [4], 50%; in assay [5], 68%; in assay [6], 10%. Moreover, the remaining binding at 1 µM in assay [7] worked out at 100%.
Regarding `O=C(c1ccc(-c2cnc3[nH]cc(Cl)c3c2NC2CCCC2)cc1)N1CCC(N2CCOCC2)CC1` [Compound 101, (4-(3-chloro-4-(cyclopentylamino)-1H-pyrrolo[2,3-b]pyridin-5-yl)phenyl)(4-morpholinopiperidin-1-yl)methanone], the remaining binding at 1 µM worked out at 100% in assay [1]; 74% in assay [2]; 33% in assay [3]; 99% in assay [4]; 78% in assay [5]; 92% in assay [6]. For the same molecule, the remaining binding at 1 µM in assay [7] worked out at 100%.
For `CNc1c(-c2cnn([C@H]3CCN(C(C)=O)C[C@@H]3F)c2)cnc2[nH]cc(Cl)c12` [Compound 77, 1-((3S,4S)-4-(4-(3-chloro-4-(methylamino)-1H-pyrrolo[2,3-b]pyridin-5-yl)-1H-pyrazol-1-yl)-3-fluoropiperidin-1-yl)ethan-1-one], the remaining binding at 1 µM in assay [1] came to 95%; in assay [2] it was 51%; in assay [3], 9.7%; in assay [4], 69%; in assay [5], 86%; in assay [6], 5.5%. Besides, in assay [7], the remaining binding at 1 µM stood at 100%.
